Five molecules from paper PMC9356275, “A quantitative high-throughput screen identifies compounds that lower expression of the SCA2-and ALS-associated gene ATXN2” (The Journal of Biological Chemistry, 2022) can be followed below.

Counter-ions that a name gives are not always drawn. Like-named read-outs stand apart in the source and are kept apart here.

Series [1] deals with ATXN2-luc. Put plainly: MSSR pilot screen: ATXN2-luc luciferase assay (Bright-Glo) in H2 cells, single 10 μM dose. It is filed as cell-based, human. The settings on record: for SD from mean (ATXN2-luc, Z-score): H2 cells, single dose (title: 10 μM compound), overnight; for ¦Score/1SD¦: absolute score divided by 1SD (0.891 or 0.9).
For series [2], the system named is ATXN2-luc. Description: Secondary assays: ATXN2-luc in S2 and H2 cells, 12 doses, Bright-Glo. Type of series: cell-based, human. The settings on record: for IC50: Homo sapiens; for min ATXN2-luc (%): minimum ATXN2-luc signal over 12 doses, H2 and S2 cells.
Series [3] deals with CMV-luc. Description: Secondary assays: CMV-luc in SC cells, Bright-Glo. The settings on record: minimum CMV-luc signal in SC cells over 12 doses; summary data. Type of series: cell-based, human.
A short description of a further series: in vitro. The following applies: human. The procedure: The values for H2 and S2 were used as replicates to calculate IC50s and to assess cell viability.
Compounds were plated at 2× concentrations in phenol red–free DMEM in 25 μl in 384-well plates with each compound dose plated in triplicate. An equal volume of S2, H2, or SC cells (24,000 cells/well) suspended in phenol red–free DMEM with 10% fetal bovine serum and 1× penicillin/streptomycin were added. Cells were grown 24 h and then assayed first by using the CellTiter-Fluor reagent (20 μl) followed by the addition of Bright-Glo (65 μl) luciferase assay, using a multimode plate reader (Beckman; DT880). Values were reported as the mean ± SD with n = 3. IC50s were determined by the Hill coefficient method using an online tool (https://www.aatbio.com/tools/ic50-calculator).

Series [4] concerns ATXN2-luc. Description: ATXN2-luc luciferase dose-response in H2 cells, 48 h. Type of series: cell-based. The following applies: Homo sapiens, read-out: IC50, ATXN2-luc expression by luciferase assay.
For the next series, the system named is endogenous ATXN2. Put plainly: Endogenous ATXN2 mRNA by qPCR in HEK-293 cells. Type of series: cell-based. The settings on record: Homo sapiens, HEK293, 48 h, read-out: IC50, endogenous ATXN2 by qPCR.
Series [5] concerns ATXN2-luc. Put plainly: MSSR hit retest: ATXN2-luc luciferase assay, average of H2 and S1 cells (1 and 10 uM). It is filed as cell-based, human. The settings on record: Homo sapiens; for activity at 1 µM: read-out: H2&S1 ave luc 1uM. The text has this: (§1) Supplement mmc2.xlsx, sheet "43 annotated compounds"
A further series concerns H2 and S1 cells. Put plainly: Paired MTT viability assay, average of H2 and S1 cells (1 and 10 uM). Type of series: cell-based, human. The settings on record: Homo sapiens.
Excerpt: as §1

The test system of a further series is H2 cells. The settings on record: 1 nM.
Series [6] has as its system ATXN2-luc. Put plainly: MSSR hit retest / multiconcentration testing: ATXN2-luc luciferase assay in H2 cells (1 and 10 μM). It is filed as cell-based, human. The settings on record: 1 uM compound; luciferase, average of H2 and S1 cells expressing ATXN2-luc; rescreen.
The subject of series [7] is CMV-luc. Description: MSSR counterscreen: CMV-luc expression in HC cells. It is filed as cell-based, human. The following applies: for CMV-luc, averages as percent of no compound control: HC cells, n=4 wells.
The subject of series [8] is ATXN2-luc. Put plainly: NCATS qHTS (LOPAC pilot, primary and confirmation): ATXN2-luc in S2 cells, 1536-well, Steady-Glo. It is filed as cell-based, human. The settings on record: LOPAC library screening optimization. The gist of the method:
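[…] S2 cells expressing ATXN2-luc in phenol red–free DMEM screened in 1536-well qHTS format. Luciferase read by Steady-Glo luminescence after 5 min at room temperature (2 s exposure), multiplexed with CellTiter-Fluor viability.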

Where [9] appears, read: pilot screen at 10 µM compound, H2 cells expressing ATXN2-luc.
Setting [10] is: read-out: H2&S1 ave MTT 1uM, 1 uM compound.
Setting [11] is: read-out: H2&S1 ave MTT 10uM, 10 uM compound.

`C[C@@H]1O[C@@H](O[C@@H]2C=C3CC[C@@H]4[C@H](CC[C@]5(C)[C@@H](c6ccc(=O)oc6)CC[C@]45O)[C@@]3(C)CC2)[C@H](O)[C@H](O)[C@H]1O` [Proscillaridin A]: the “SD from mean (ATXN2-luc, Z-score)” value with ATXN2-luc [1] was -7.684 SD. The “SD from mean (pilot screen)” value is on record as -7.684 SD in the series with ATXN2-luc [1] (pilot screen) and -7.684 in the series with ATXN2-luc [1] (setting [9]). In the series on ATXN2-luc [1] (pilot screen), the “¦Score/1SD¦” value was determined as 8.62. Further, the concentration for half-maximal inhibition (IC50) with ATXN2-luc [2] (24 h, read-out: IC50 for lowering ATXN2-luc) worked out at 17 nM; with ATXN2-luc [4] it was 52 nM; with endogenous ATXN2, 677 nM. Also, the “min ATXN2-luc (%)” value in the series on ATXN2-luc [2] (summary data) is recorded as 7.9859%. For the same molecule, the “min SC luc (%)” value in the series on CMV-luc [3] stood at 121.976%. Further, the viability at 24 h in “in vitro” is 74.2%. The activity at 1 µM with ATXN2-luc [5] was determined as 54%. In addition, the activity with ATXN2-luc [5] (read-out: H2&S1 ave luc 10uM) worked out at 22%. Further, the viability at 1 µM in the series with H2 and S1 cells (setting [10]) was determined as 47.8%. The viability at 10 µM with H2 and S1 cells (setting [11]) was found to be 45%. The “Cellular viability (MTT)” value in the series with H2 cells was “minimal effect on cellular viability”.
As to `CN1CCN(CCCN2c3ccccc3Sc3ccc(C(F)(F)F)cc32)CC1` [TRIFLUOPERAZINE HYDROCHLORIDE], the “SD from mean (ATXN2-luc, Z-score)” value with ATXN2-luc [1] was -5.856 SD. Further, the “SD from mean (pilot screen)” value is recorded as -5.856 SD in the series on ATXN2-luc [1] (pilot screen) and -5.856 with ATXN2-luc [1] (setting [9]). Also, in the series on ATXN2-luc [1] (pilot screen), the “¦Score/1SD¦” value came to 6.51. Besides, the “H2&S1 ave luc 1uM” value with ATXN2-luc [6] was 105. The “CMV-luc, averages as percent of no compound control” value with CMV-luc [7] (0.1 uM compound) is 94.6408% of no compound control; in the series on CMV-luc [7] (1 uM compound), 100.563% of no compound control; in the series on CMV-luc [7] (10 uM compound), 98.5115% of no compound control. Besides, the “Comment on CMV-luc inhibition” value in the series on CMV-luc [7] (result in words) is “No CMV-luc inhibition at 10 uM”. Moreover, the “ATXN2 luc activity (call)” value in the series on CMV-luc [7] (summary call for the 12 pilot compounds tested on CMV-luc) is “Unclear”. Further, in the series on ATXN2-luc [5] (1 uM compound, average of H2 and S1 cells), the activity at 1 µM came out at 105%. In the series with ATXN2-luc [5] (head line r3 10uM, average of H2 and S1 cells, read-out: H2&S1 ave luc 10uM), the activity at 10 µM was 1.54%. For the same molecule, the viability at 1 µM with H2 and S1 cells (1 uM compound, read-out: H2&S1 ave MTT 1uM) worked out at 88.1%. For the same molecule, the viability at 10 µM with H2 and S1 cells (10 uM compound, read-out: H2&S1 ave MTT 10uM) worked out at 8.76%.
Turning to `C[C@H]1O[C@@H](O[C@H]2[C@@H](O)C[C@H](O[C@H]3[C@@H](O)C[C@H](O[C@H]4CC[C@@]5(C)[C@H](CC[C@@H]6[C@@H]5C[C@@H](O)[C@]5(C)[C@@H](C7=CC(=O)OC7)CC[C@]65O)C4)O[C@@H]3C)O[C@@H]2C)C[C@H](O)[C@@H]1O` [Digoxin], the “SD from mean (ATXN2-luc, Z-score)” value in the series with ATXN2-luc [1] was -3.904 SD. Further, the “SD from mean (pilot screen)” value is recorded as -3.904 SD with ATXN2-luc [1] (pilot screen) and -3.904 with ATXN2-luc [1] (setting [9]). In addition, the “¦Score/1SD¦” value with ATXN2-luc [1] (pilot screen) stood at 4.38. For the same molecule, the “min ATXN2-luc (%)” value in the series on ATXN2-luc [2] (summary data) is 9.041%. Moreover, in the series on CMV-luc [3], the “min SC luc (%)” value is listed as 107.579%. In the series “in vitro”, this molecule returned a viability at 24 h of 67.9%. Moreover, the activity at 1 µM in the series with ATXN2-luc [5] came to 47%. For the same molecule, the activity with ATXN2-luc [5] (read-out: H2&S1 ave luc 10uM) amounted to 12%. Also, the viability at 1 µM in the series with H2 and S1 cells (setting [10]) was 78.7%. In addition, the viability at 10 µM with H2 and S1 cells (setting [11]) was found to be 73.5%.
On to `CC[C@@]1(O)C(=O)OCc2c1cc1n(c2=O)Cc2cc3ccccc3nc2-1` [Camptothecine (S+)], for which the “SD from mean (ATXN2-luc, Z-score)” value in the series on ATXN2-luc [1] is -5.283 SD. Besides, the IC50 in the series with ATXN2-luc [2] (ATXN2-luc luciferase assays in H2 and S2 cells, 12 doses plus a zero dose, summary data, read-out: Mean IC50) came to 40 nM. Also, the “min ATXN2-luc (%)” value with ATXN2-luc [2] (summary data) worked out at 14.3715%. In the series with CMV-luc [3], the “min SC luc (%)” value is reported as 42.7084%. This molecule displayed a viability at 24 h in “in vitro” of 92.1%.
Regarding `CC[C@H](CO)Nc1nc(NCc2ccccc2)c2ncn(C(C)C)c2n1` [NCGC00094374-05, roscovitine], the AC50 in the series with ATXN2-luc [8] (Homo sapiens, logarithm of AC50 (negative values), read-out: Log AC50 (converted)) is 28200 nM; in the series on ATXN2-luc [8] (Homo sapiens, read-out: AC50) it was 28200 nM; in the series with ATXN2-luc [8] (read-out: AC50), 31600 nM. In the series on ATXN2-luc [8] (logarithm of AC50 (negative values)), the “Log AC50” value is on record as -4.5. For the same molecule, the “min ATXN2-luc (%)” value in the series on ATXN2-luc [2] (summary data) was 57.3224%. For the same molecule, in the series with CMV-luc [3], the “min SC luc (%)” value came to 82.4469%. The same molecule showed a viability at 24 h in “in vitro” of 77.8%.
